As a reminder, the MBC is the lowest tested concentration that kills the bacteria rather than only halting them. A high value points to weaker bactericidal potency. By MIC is commonly meant the lowest concentration found to suppress growth. As a reminder, the Kd is the concentration at which binding is half-saturated.

The test system of data set [1] is H. pylori ATCC 700684 (clarithromycin resistant). The data set is described as follows: MIC/MBC by broth microdilution, strain ATCC 700684 (CLR-R). Type of data set: cell-based. The following applies: Helicobacter pylori; for MBC: ATCC700684; for MIC: ATCC700684, 72 h. On the technique in general: In broth dilution the organism is exposed to a series of concentrations in liquid medium.

The test system of another data set is H. pylori ATCC 700392. The data set is described as follows: MIC/MBC by broth microdilution, strain ATCC 700392. To be noted: Helicobacter pylori, ATCC700392; for MBC: ATCC 700392; for MIC: ATCC 700392, 72 h. Type of data set: cell-based.
Data set [2] deals with H. pylori ATCC 43504 (metronidazole-resistant). The data set is described as follows: MIC/MBC by broth microdilution, strain ATCC 43504 (MTZ-R). Type of data set: cell-based. To be noted: Helicobacter pylori; for MBC: ATCC43504; for MIC: ATCC43504, 72 h.
Data set [3] has as its system H. pylori strain ATCC 700684. The data set is described as follows: Time-kill kinetics assay. It is filed as cell-based, Helicobacter pylori. To be noted: 2 × MIC. The method, then:
Time–kill curves for selected DHP drugs were determined using the H. pylori strain ATCC 700684 [17]. […] DMSO instead of drugs was included as control. Colony forming units (CFUs) were determined after 4, 8, and 24 h of drug exposition by culturing on Blood Agar Base No.2 supplemented with 8% defibrinated horse blood for 72 h under microaerobic conditions. Each determination was performed twice in triplicate and the results were presented as log10 CFU/mL versus incubation time. Statistical analysis was performed using the Mann–Whitney U test. A p value smaller than 0.05 was considered significant.

For data set [4], the target named is T1, H. pylori HsrA response regulator (Helicobacter pylori, UniProt O25684). Type of data set: biochemical. To be noted: EMSA. The protocol:
The in vitro biological activity of the H. pylori HsrA response regulator and its potential inhibition by DHP drugs were assessed by electrophoretic mobility shift assay (EMSA) as previously described. Briefly, 120 ng of target DNA (promoter region of the H. pylori porGDAB operon) was mixed with 6 µM of recombinant HsrA [17] in the presence of increasing concentrations (0.1 to 2 mM) of selected DHP drugs. Mixtures of DNA and protein in a 20 μL reaction volume containing 10 mM bis-Tris (pH 7.5), 40 mM KCl, 100 mg/L BSA, 1 mM DTT and 5% glycerol were incubated at room temperature for 20 min and then separated by 6% native polyacrylamide gel electrophoresis. A 150 bp fragment of the Anabaena sp. PCC 7120 gene pkn22 was included as non-specific competitor DNA in all assays. EMSA gels were stained with SYBR Safe® (Thermo Fisher Scientific, Bothell, WA, USA) and analyzed using the Bio-Rad Gel Doc 2000 imaging system.
In general terms: A gel shift assay detects complexes by their altered migration in electrophoresis.

The test system of the next data set is Mouse. The following applies: ref PubChem; cited from earlier work.
Data set [5] deals with T1, H. pylori HsrA response regulator. The data set is described as follows: biochemical. Type of data set: binding. The method, then:
Thermodynamic parameters of the molecular interaction between HsrA and its DHP-class inhibitors were analyzed by isothermal titration calorimetry (ITC) using an AutoiTC200 calorimeter (MicroCal, Malvern Instruments, Malvern, Worcestershire, UK). A solution of 20 µM of the protein in 50 mM Tris-HCl [pH 8], 150 mM NaCl, 10% glycerol, 1% DMSO was titrated with 200 µM of the corresponding ligand (DHP) dissolved in the same buffer at 25 °C. A total of 19 injections of 2 μL was added sequentially to the sample cell after 150 s spacing to ensure that the thermal power returned to the baseline before the next injection. Dissociation constants and binding enthalpies were calculated by non-linear least squares regression data analysis using the software package Origin 7.0 (OriginLab, Northampton, MA, USA).

Data set [6] has as its system different strains of H. pylori. Set-up: method as in PMID 31383920. The following applies: including metronidazole- and clarithromycin-resistant strains; cited from earlier work.
Data set [7] deals with T1, H. pylori HsrA response regulator. The arrangement: method as in PMID 31383920. To be noted: previous work; cited from earlier work.

Structures are written as SMILES. ≈ marks a conversion by molar mass, not a printed value.

T1 sequence (O25684 entry or part of it): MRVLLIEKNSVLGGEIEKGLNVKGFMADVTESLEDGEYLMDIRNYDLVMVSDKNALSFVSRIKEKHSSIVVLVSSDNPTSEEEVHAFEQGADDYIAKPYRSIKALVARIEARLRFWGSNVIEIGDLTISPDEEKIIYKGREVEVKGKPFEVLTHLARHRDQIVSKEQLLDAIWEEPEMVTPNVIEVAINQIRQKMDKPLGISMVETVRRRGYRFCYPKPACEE

Take `CC[C@H]1OC(=O)[C@H](C)[C@@H](O[C@H]2C[C@@](C)(OC)[C@@H](O)[C@H](C)O2)[C@H](C)[C@@H](O[C@@H]2O[C@H](C)C[C@H](N(C)C)[C@H]2O)[C@](C)(OC)C[C@@H](C)C(=O)[C@H](C)[C@@H](O)[C@]1(C)O` [Clarithromycin]: the minimal bactericidal concentration (MBC) was 32 µg/mL (≈ 42.8 µM) in data set [1], not above 0.12 µg/mL against H. pylori ATCC 700392 and not above 0.12 µg/mL in data set [2]. For the same molecule, the MIC in [1] was 16 µg/mL (≈ 21.4 µM); against H. pylori ATCC 700392 it was not above 0.12 µg/mL; in data set [2], not above 0.12 µg/mL.
`Cc1ncc([N+](=O)[O-])n1CCO` [Metronidazole]: the MBC stood at 2 µg/mL (≈ 11.7 µM) in [1], 2 µg/mL (≈ 11.7 µM) in the data set on H. pylori ATCC 700392 and 128 µg/mL (≈ 748 µM) in data set [2]. Also, the MIC worked out at 1 µg/mL (≈ 5.84 µM) in data set [1], 1 µg/mL (≈ 5.84 µM) in the data set with H. pylori ATCC 700392 and 64 µg/mL (≈ 374 µM) in [2].
In the case of `COC(=O)C1=C(C)NC(C)=C(C(=O)OC)C1c1ccccc1[N+](=O)[O-]` [Nifedipine], the “Decline in bacterial counts (time-kill kinetics) compared to other DHPs” value in [3] is on record as “significantly slower”. The figures for the MBC (in data set [1]; against H. pylori ATCC 700392; in data set [2]) were 8 µg/mL (≈ 23.1 µM), 8 µg/mL (≈ 23.1 µM) and 16 µg/mL (≈ 46.2 µM), respectively. In addition, the figures for the minimal inhibitory concentration (MIC) (in data set [1]; in the data set on H. pylori ATCC 700392; in data set [2]) were 8 µg/mL (≈ 23.1 µM), 8 µg/mL (≈ 23.1 µM) and 16 µg/mL (≈ 46.2 µM), respectively.
For `COC(=O)C1=C(C)NC(C)=C(C(=O)OCC(C)C)C1c1ccccc1[N+](=O)[O-]` (stereo not drawn) [Nisoldipine], the “Decline in bacterial counts (time-kill kinetics) compared to other DHPs” value in data set [3] is reported as “significantly faster”. In addition, the “Killing effect after 4 h of exposition” value in data set [3] (4 h) is reported as “completely lethal”. In addition, the “Inhibition of the DNA binding activity of HsrA” value in data set [4] (6 µM HsrA, 120 ng target promoter, 0.1 to 2 mM DHP) is reported as “noticeably inhibited”. The “Inhibition of HsrA activity at 100 μM” value in data set [4] (100 μM drug, 6 μM HsrA) is listed as “partially inhibited”. For the same molecule, the MBC in [1] was found to be 4 µg/mL (≈ 10.3 µM); with H. pylori ATCC 700392 it was 4 µg/mL (≈ 10.3 µM); in [2], 16 µg/mL (≈ 41.2 µM). Moreover, the MIC in data set [1] came out at 4 µg/mL (≈ 10.3 µM); against H. pylori ATCC 700392, 4 µg/mL (≈ 10.3 µM); in data set [2], 16 µg/mL (≈ 41.2 µM). For the same molecule, the “Mouse LD50 (mg/kg, oral)” value in the data set with Mouse is recorded as 411 mg/kg. Besides, binding in data set [5] was characterised by a dissociation constant (Kd) of 11 µM. In [5] (ITC, 25 °C, pH 8, absolute error 0.06), the “n (binding stoichiometry)” value came to 0.70. Further, the ΔG in data set [5] (ITC, 25 °C, pH 8, absolute error 0.2 kcal/mol) was -6.8 kcal/mol. In data set [5] (ITC, 25 °C, pH 8, absolute error 0.4 kcal/mol), this molecule registered a ΔH of -2.2 kcal/mol.
`O=c1cc(-c2ccc(O)cc2)oc2cc(O)cc(O)c12` [apigenin]: the “Bactericidal activity against different strains of H. pylori” value in [6] is “strong bactericidal activities”. Besides, the “Inhibition of the biological activity of HsrA” value in data set [7] is recorded as “noticeably inhibited”.
`O=c1cc(-c2ccccc2)oc2cc(O)cc(O)c12` [chrysin]: the “Bactericidal activity against different strains of H. pylori” value in data set [6] is recorded as “strong bactericidal activities”. Moreover, the “Inhibition of the biological activity of HsrA” value in data set [7] was “noticeably inhibited”.
As for `COc1ccc([C@@H]2CC(=O)c3c(O)cc(O)cc3O2)cc1O` [hesperetin], the “Bactericidal activity against different strains of H. pylori” value in [6] is “strong bactericidal activities”. Further, the “Inhibition of the biological activity of HsrA” value in data set [7] is recorded as “noticeably inhibited”.
As for `O=c1c(O)c(-c2ccc(O)cc2)oc2cc(O)cc(O)c12` [kaempferol], the “Bactericidal activity against different strains of H. pylori” value in data set [6] is reported as “strong bactericidal activities”. In [7], the “Inhibition of the biological activity of HsrA” value is on record as “noticeably inhibited”.

These data come from PMC6969910, “Repurposing Dihydropyridines for Treatment of Helicobacter pylori Infection” (Pharmaceutics, 2019).
